Measurements reported in US9738634B2, “Heterocyclic amide compound and herbicide” (SYNGENTA PARTICIPATIONS AG, priority 2013, dated 2017).

Tests used:
Assay type in all cases: in vivo
[1] = test system: barnyard grass; assay: Test Example 1: weedkilling efficacy, preemergent weed treatment in the submerged state; A: barnyard grass; details: treatment dosage 252 g/ha
In short: (§1)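 Visual scores against set criteria were taken 3 weeks after treatment. Compounds, as diluted emulsions at specified g/ha, went onto the water surface of 4 cm-flooded alluvial soil pots on the day weeds were sown and 2.5-leaf rice was transplanted; greenhouse held 25–30 °C.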

[2] = test system: bulrush; assay: Test Example 1: weedkilling efficacy, preemergent weed treatment in the submerged state; B: bulrush; details: treatment dosage 252 g/ha
In short: as §1

[3] = test system: oval-leafed pondweed; assay: Test Example 1: weedkilling efficacy, preemergent weed treatment in the submerged state; C: oval-leafed pondweed; details: treatment dosage 252 g/ha
In short: as §1

[4] = test system: transplanted rice; assay: Test Example 1: preemergent weed treatment in the submerged state, effect on crop; a: transplanted rice; details: treatment dosage 252 g/ha
In short: as §1

[5] = test system: barnyard grass; assay: Test Example 2: weedkilling efficacy, growth period weed treatment in the submerged state; A: barnyard grass; details: treatment dosage 252 g/ha
In short: (§2)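 Barnyard grass, bulrush and oval-leafed pondweed sown in alluvial soil under 4 cm flooding, greenhouse 25 to 30° C. At 1-2 leaf stage, water-diluted emulsion applied to the water surface at stated g/ha dosages; effects scored 3 weeks later.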

[6] = test system: bulrush; assay: Test Example 2: weedkilling efficacy, growth period weed treatment in the submerged state; B: bulrush; details: treatment dosage 252 g/ha
In short: as §2

[7] = test system: oval-leafed pondweed; assay: Test Example 2: weedkilling efficacy, growth period weed treatment in the submerged state; C: oval-leafed pondweed; details: treatment dosage 252 g/ha
In short: as §2

[8] = test system: crabgrass; assay: Test Example 3: weedkilling efficacy through soil treatment; D: crabgrass; details: treatment dosage 315 g/ha
In short: (§3)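 Crop and weed responses were judged three weeks after a uniform surface spray of the water-diluted emulsion at the given g/ha rate. Seeds sat beneath about 1.5 cm of sterilized diluvial soil, and boxes stood in a greenhouse at 25 to 30° C.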

[9] = test system: green foxtail; assay: Test Example 3: weedkilling efficacy through soil treatment; E: green foxtail; details: treatment dosage 315 g/ha
In short: as §3

[10] = test system: wild oat; assay: Test Example 3: weedkilling efficacy through soil treatment; G: wild oat; details: treatment dosage 315 g/ha
In short: as §3

[11] = test system: black-grass; assay: Test Example 3: weedkilling efficacy through soil treatment; H: black-grass; details: treatment dosage 315 g/ha
In short: as §3

[12] = test system: Italian ryegrass; assay: Test Example 3: weedkilling efficacy through soil treatment; I: Italian ryegrass; details: treatment dosage 315 g/ha
In short: as §3

[13] = test system: Indian mallow; assay: Test Example 3: weedkilling efficacy through soil treatment; K: Indian mallow; details: treatment dosage 315 g/ha
In short: as §3

[14] = test system: redroot pigweed; assay: Test Example 3: weedkilling efficacy through soil treatment; L: redroot pigweed; details: treatment dosage 315 g/ha
In short: as §3

[15] = test system: fig-leafed goosefoot; assay: Test Example 3: weedkilling efficacy through soil treatment; M: fig-leafed goosefoot; details: treatment dosage 315 g/ha
In short: as §3

[16] = test system: chickweed; assay: Test Example 3: weedkilling efficacy through soil treatment; N: chickweed; details: treatment dosage 315 g/ha
In short: as §3

[17] = test system: corn; assay: Test Example 3: soil treatment, effect on crop; c: corn; details: treatment dosage 315 g/ha
In short: as §3

[18] = test system: soybean; assay: Test Example 3: soil treatment, effect on crop; d: soybean; details: treatment dosage 315 g/ha
In short: as §3

[19] = test system: wheat; assay: Test Example 3: soil treatment, effect on crop; e: wheat; details: treatment dosage 315 g/ha
In short: as §3

[20] = test system: beet; assay: Test Example 3: soil treatment, effect on crop; f: beet; details: treatment dosage 315 g/ha
In short: as §3

[21] = test system: crabgrass; assay: Test Example 4: weedkilling efficacy by foliar treatment; D: crabgrass; details: treatment dosage 315 g/ha
In short: (§4)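 Seeds are spot-sown into sterilized diluvial soil and covered with about 1.5 cm of soil. After 14 days' greenhouse growth at 25 to 30° C, plants are sprayed on stems and leaves with diluted emulsion at the stated g/ha rate, then scored at 3 weeks.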

[22] = test system: green foxtail; assay: Test Example 4: weedkilling efficacy by foliar treatment; E: green foxtail; details: treatment dosage 315 g/ha
In short: as §4

[23] = test system: wild oat; assay: Test Example 4: weedkilling efficacy by foliar treatment; G: wild oat; details: treatment dosage 315 g/ha
Procedure: Testing of Weedkilling Efficacy by Foliar Treatment
Sterilized diluvial soil was introduced into 21 cm long, 13 cm wide, 7 cm deep plastic boxes, and seeds of crabgrass, green foxtail, barnyard grass, wild oat, black-grass, Italian ryegrass, common wind-grass, Indian mallow, redroot pigweed, fig-leafed goosefoot, chickweed, catchweed, birds-eye speedwell, corn, soybean, rice, wheat, beet and rapeseed were each spot-sown, and covered with about 1.5 cm of soil, then the plants were grown in a greenhouse at 25 to 30° C.
After they had grown for 14 days, emulsions of compounds of the present invention prepared according to compounding example 2 were diluted with water to give the specified dosages, and applied uniformly onto the stem and leaf parts with a small sprayer. 3 weeks after the pesticide treatment the effect on each type of plant was investigated on the basis of the assessment criteria of test example 1.
A: barnyard grass, B: bulrush, C: oval-leafed pondweed, D: crabgrass, E: green foxtail, F: barnyard grass, G: wild oat, H: black-grass, I: Italian ryegrass, J: common wind-grass, K: Indian mallow, L: redroot pigweed, M: fig-leafed goosefoot, N: chickweed, O: catchweed, p: birds-eye speedwell, a: transplanted rice, b: directly sown rice, c: corn, d: soybean, e: wheat, f: beet, g: rapeseed
Further, pesticide dosage (g/ha) indicates the concentration regulated such that treatment was with only the stated number of grams (g), when calculated per hectare (ha).

[24] = test system: black-grass; assay: Test Example 4: weedkilling efficacy by foliar treatment; H: black-grass; details: treatment dosage 315 g/ha
In short: as §4

[25] = test system: Italian ryegrass; assay: Test Example 4: weedkilling efficacy by foliar treatment; I: Italian ryegrass; details: treatment dosage 315 g/ha
In short: as §4

[26] = test system: Indian mallow; assay: Test Example 4: weedkilling efficacy by foliar treatment; K: Indian mallow; details: treatment dosage 315 g/ha
In short: as §4

[27] = test system: redroot pigweed; assay: Test Example 4: weedkilling efficacy by foliar treatment; L: redroot pigweed; details: treatment dosage 315 g/ha
In short: as §4

[28] = test system: chickweed; assay: Test Example 4: weedkilling efficacy by foliar treatment; N: chickweed; details: treatment dosage 315 g/ha
In short: as §4

[29] = test system: catchweed; assay: Test Example 4: weedkilling efficacy by foliar treatment; O: catchweed; details: treatment dosage 315 g/ha
In short: as §4

[30] = test system: birds-eye speedwell; assay: Test Example 4: weedkilling efficacy by foliar treatment; p: birds-eye speedwell; details: treatment dosage 315 g/ha
In short: as §4

[31] = test system: directly sown rice; assay: Test Example 4: foliar treatment, effect on crop; b: directly sown rice; details: treatment dosage 315 g/ha
In short: as §4

[32] = test system: corn; assay: Test Example 4: foliar treatment, effect on crop; c: corn; details: treatment dosage 315 g/ha
In short: as §4

[33] = test system: soybean; assay: Test Example 4: foliar treatment, effect on crop; d: soybean; details: treatment dosage 315 g/ha
In short: as §4

[34] = test system: wheat; assay: Test Example 4: foliar treatment, effect on crop; e: wheat; details: treatment dosage 315 g/ha
In short: as §4

CC1=C(c2ccccc2)C(=O)N(C(C)(C)C(=O)Nc2cncc(F)c2)CO1 [B-3-01]
A (barnyard grass) weedkilling efficacy grade [1]: 5 (weed kill ratio 90% or more, (practically complete withering)) | B (bulrush) weedkilling efficacy grade [2]: 5 (weed kill ratio 90% or more, (practically complete withering)) | C (oval-leafed pondweed) weedkilling efficacy grade [3]: 5 (weed kill ratio 90% or more, (practically complete withering)) | a (transplanted rice) effect on crop grade [4]: 0 (weed kill ratio 5% or less (practically no effect)) | A (barnyard grass) weedkilling efficacy grade [5]: 3 (weed kill ratio 40% or more, less than 70%) | B (bulrush) weedkilling efficacy grade [6]: 5 (weed kill ratio 90% or more, (practically complete withering)) | C (oval-leafed pondweed) weedkilling efficacy grade [7]: 4 (weed kill ratio 70% or more, less than 90%) | D (crabgrass) weedkilling efficacy grade [8]: 5 (weed kill ratio 90% or more, (practically complete withering)) | E (green foxtail) weedkilling efficacy grade [9]: 5 (weed kill ratio 90% or more, (practically complete withering)) | G (wild oat) weedkilling efficacy grade [10]: 5 (weed kill ratio 90% or more, (practically complete withering)) | H (black-grass) weedkilling efficacy grade [11]: 5 (weed kill ratio 90% or more, (practically complete withering)) | I (Italian ryegrass) weedkilling efficacy grade [12]: 5 (weed kill ratio 90% or more, (practically complete withering)) | K (Indian mallow) weedkilling efficacy grade [13]: 2 (weed kill ratio 20% or more, less than 40%) | L (redroot pigweed) weedkilling efficacy grade [14]: 4 (weed kill ratio 70% or more, less than 90%) | M (fig-leafed goosefoot) weedkilling efficacy grade [15]: 5 (weed kill ratio 90% or more, (practically complete withering)) | N (chickweed) weedkilling efficacy grade [16]: 4 (weed kill ratio 70% or more, less than 90%) | c (corn) effect on crop grade [17]: 3 (weed kill ratio 40% or more, less than 70%) | d (soybean) effect on crop grade [18]: 0 (weed kill ratio 5% or less (practically no effect)) | e (wheat) effect on crop grade [19]: 5 (weed kill ratio 90% or more, (practically complete withering)) | f (beet) effect on crop grade [20]: 4 (weed kill ratio 70% or more, less than 90%) | D (crabgrass) weedkilling efficacy grade [21]: 5 (weed kill ratio 90% or more, (practically complete withering)) | E (green foxtail) weedkilling efficacy grade [22]: 5 (weed kill ratio 90% or more, (practically complete withering)) | G (wild oat) weedkilling efficacy grade [23]: 5 (weed kill ratio 90% or more, (practically complete withering)) | H (black-grass) weedkilling efficacy grade [24]: 5 (weed kill ratio 90% or more, (practically complete withering)) | I (Italian ryegrass) weedkilling efficacy grade [25]: 5 (weed kill ratio 90% or more, (practically complete withering)) | K (Indian mallow) weedkilling efficacy grade [26]: 3 (weed kill ratio 40% or more, less than 70%) | L (redroot pigweed) weedkilling efficacy grade [27]: 3 (weed kill ratio 40% or more, less than 70%) | N (chickweed) weedkilling efficacy grade [28]: 2 (weed kill ratio 20% or more, less than 40%) | O (catchweed) weedkilling efficacy grade [29]: 4 (weed kill ratio 70% or more, less than 90%) | P (birds-eye speedwell) weedkilling efficacy grade [30]: 3 (weed kill ratio 40% or more, less than 70%) | b (directly sown rice) effect on crop grade [31]: 5 (weed kill ratio 90% or more, (practically complete withering)) | c (corn) effect on crop grade [32]: 4 (weed kill ratio 70% or more, less than 90%) | d (soybean) effect on crop grade [33]: 4 (weed kill ratio 70% or more, less than 90%) | e (wheat) effect on crop grade [34]: 1 (weed kill ratio 5% or more, less than 20%)
